This is an account of results in patent US20210220331A1, “INHIBITORS OF IRES-MEDIATED PROTEIN SYNTHESIS” (The Regents of the University of California, priority 2016, published 2021).

One test deals with human cyclin D1 IRES. The test is described as follows: Dicistronic IRES mRNA reporter assay (firefly luciferase), cyclin D1 IRES. It counts as cell-based. Particulars: for Cyclin D1 (decrease): fold decrease in PP242-induced cyclin D1 IRES activity: LN229, relative to values obtained with parent compound C11. The protocol:
Western blot and quantitative RT-PCR analyses were performed as previously described (19). For Western blotting, cells or tissues were lysed in RIPA (lysis) buffer containing protease inhibitor cocktail and phosSTOP phosphatase inhibitor cocktail (Roche) and extracts resolved by SDSPAGE. Proteins were transferred to PVDF membranes and incubated with the indicated antibodies. For IRES reporter assays, the indicated mRNA reporters were cotransfected into cells with pSVβ-galactosidase to normalize for transfection efficiency as described previously (16). Cells were harvested 18 h following transfection and Renilla, firefly and β-galactosidase activities determined using the Dual-Glo Luciferase and β-galactosidase assay systems (Promega).
(B) Schematic diagrams of the dicistronic constructs used in this study. Constructs used are pRF, pRCD1F, which contains the human cyclin D1 IRES, pRmycF, containing the human c-myc IRES, pRp27F, containing the human p27Kip1 IRES and pRECMVF, containing the IRES from encephalomyocarditis virus. (C) Relative Renilla and firefly luciferase activities obtained from LN229 GBM cells transfected with the indicated constructs in the absence or presence of the inhibitor C11. The mean and +SD are shown for three independent experiments. […] (D) RNA-pull down assays utilizing biotinylated cyclin D1 or c-MYC IRES RNAs. Cytoplasmic extracts of LN229 cells treated with C11 (50 nM) as indicated were incubated with biotinylated cyclin D1 or c-MYC IRES RNAs and precipitated with streptavidin-Sepharose beads. Input and bound fractions were analyzed by immunoblotting using hnRNP A1 antibodies. […] RT-PCR measurements were performed in quadruplicate and the mean and +S.D. are shown. […] (F) Top panel, LN229 cells were treated with C11 as indicated and RT-PCR splicing analysis for Max exon 5 performed as described in the Experimental Methods section. Middle panel, LN229 cells treated with C11 (50 nM) as indicated, were lysed and immunoprecipitated using either eIF-4E or control IgG antibodies. Bound CCND1 or c-MYC RNAs were detected via RT-PCR. The mean and +S.D. are shown for three independent experiments. Bottom panel, cyclin D1 and c-MYC protein levels from the indicated GBM cell lines in the absence or presence of C11 at 24 h following treatment. C11 specifically blocks c-Myc IRES-mediated translation initiation by disrupting the ITAF hnRNP A1-IRES interaction.
Several dicistronic IRES mRNA reporter constructs were utilized, shown in FIG. 1B, in which the indicated IRES sequences were inserted within the intercistronic region. LN229 cells transiently transfected with these constructs were assayed for Renilla and firefly luciferase activities, which are readouts of cap-dependent and IRES-mediated translation initiation, respectively (16). […]
For orientation: In a reporter assay the amount or activity of a reporter protein is the signal.

The target of test [1] is T1, hnRNP A1 (Homo sapiens, UniProt P09651).
T1 construct: pGEX-2T/hnRNP A1 (full length hnRNP A1) and pGEX-2T/UP1 GST fusions; made in house; host or cells: HEK293 cells
The test is described as follows: Photo-cross-linked inhibitor bead binding assay. Particulars: vs control beads, anti-GST immunoblot. Here is the method: (§1) Photo-cross-linked C11 and IRES-J007 beads were prepared as previously described (25). Activated Sepharose beads were washed three times with 1 mM aqueous HCl followed by coupling solution (100 mM NaHCO3 and 50% dioxane mixture). A solution of photoaffinity linker in coupling solution was subsequently added to the beads and incubated at 37° C. for 2 h. After washing five times with coupling solution the beads were blocked and placed in a spin column and washed three times with water and methanol. The beads were subsequently irradiated in a UV cross-linker at 365 nm (4 J/cm2) and washed with methanol. Purified GST-tagged native or mutant hnRNP A1 proteins were added to 20 μl of C11 or J007 cross-linked or control uncross-linked beads. After incubating at 4° C. for 24 h, the beads were washed three times and bound proteins eluted in 10% SDS-PAGE sample buffer at 100° C. for 5 min. and the eluted proteins were resolved by SDS-PAGE and immunoblotted using GST antibodies.
(§2) The configurations with the most favorable binding energies were visualized using PyMOL v1.5.6. The electrostatic surface representation of the crystal structure of UP1 is shown with RNP residues of RRM1 and RRM2 labeled in blue. In the 90°-rotated model, the inhibitor interaction pocket is shown in yellow. The inset is a close-up of C11 and IRES-J007 binding to the potential binding site on UP1. Residues predicted to interact with the inhibitors are labeled. (B) Purified GST-tagged wild-type hnRNP A1 (A1) and mutant A1 (4ΔA1) proteins harboring alanine substitutions at all four potential binding sites (120, 123,124 and 171) were added to uncross-linked, C11 and J007-cross-linked beads. Isolated wild-type (A1) and mutant (4ΔA1) proteins were resolved by SDS-PAGE and silver-stained to monitor purity (top panels). The binding of A1 to control, C11 and J007 beads was detected by immunoblotting with GST antibodies (bottom panel). (C) Inhibition of basal IRES activity in 293T cells upon treatment with C11 or IRES-J007. IRES reporter activity was assessed following 24 h treatment with 50 nM concentrations of each inhibitor as indicated. The mean and +SD are shown for three independent experiments. (D) RNA-pull down assays utilizing biotinylated cyclin D1 or c-MYC IRES RNAs of 293T cell extracts treated with the inhibitors as in FIG. 2C.
(§3) To further examine how C11 and IRES-J007 inhibit hnRNP A1 function, used in silico docking analysis was used to create a potential model for the binding of these inhibitors to UP1. […] The purified proteins were then incubated with control, C11 or J007 beads and binding analyzed by immunoblotting using anti-GST antibodies. […]
For orientation: In western blotting, separated proteins are transferred to a membrane and probed.

Test [2] deals with T2, hnRNP A1 (Homo sapiens, UniProt P09651, D123A/H120A/N171A/Y124A).
T2 construct: pGEX-2T/hnRNP A1 (full length hnRNP A1) and pGEX-2T/UP1 GST fusions; made in house; host or cells: HEK293 cells
The test is described as follows: Photo-cross-linked inhibitor bead binding assay. Particulars: alanine substitutions at 120, 123, 124 and 171. The protocol: as §1, §2, §3

T1 sequence (P09651 whole entry, the tested form may be a part): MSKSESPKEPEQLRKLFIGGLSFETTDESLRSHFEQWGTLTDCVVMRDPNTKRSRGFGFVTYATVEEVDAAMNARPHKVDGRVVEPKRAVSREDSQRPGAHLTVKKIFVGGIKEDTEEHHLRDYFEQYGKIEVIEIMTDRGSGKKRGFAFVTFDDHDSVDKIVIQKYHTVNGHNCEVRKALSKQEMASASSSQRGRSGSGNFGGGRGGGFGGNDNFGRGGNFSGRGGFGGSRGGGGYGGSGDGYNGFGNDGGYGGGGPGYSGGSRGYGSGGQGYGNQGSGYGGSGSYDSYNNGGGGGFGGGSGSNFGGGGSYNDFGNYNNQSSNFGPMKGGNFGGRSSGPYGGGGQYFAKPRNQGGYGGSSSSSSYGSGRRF
T2 sequence (P09651 whole entry H120A/D123A/Y124A/N171A, the tested form may be a part): as the sequence (P09651 whole entry, the tested form may be a part) above, with H120A, D123A, Y124A, N171A counted along it

In the case of `COc1ccc(CN2C(=O)C(Cl)=C(Cl)C2=O)c(OC)c1` [Compound C11, reference compound], the “Cyclin D1 (decrease): fold decrease in PP242-induced cyclin D1 IRES activity” value with human cyclin D1 IRES was determined as 1.0 fold. For the same compound, in the test on human cyclin D1 IRES (LN229 cells, cotreatment with rapamycin or PP242), the “mTOR inhibitor-induced cyclin D1 IRES activity” value is recorded as “significantly inhibited”. Further, the “cyclin D1 IRES activity” value in the test on human cyclin D1 IRES (LN229 cells, inhibitor alone) was “significantly inhibited”. The “binding of native GST-tagged hnRNP A1 to inhibitor-cross-linked beads” value on hnRNP A1 [1] is “bound”. For the same compound, on hnRNP A1 [2], the “amount of mutant hnRNP A1 (4ΔA1) bound to inhibitor beads relative to native hnRNP A1” value was “markedly reduced”.
As to `COc1ccc(CN2C(=O)c3ccccc3C2=O)c(OC)c1` [IRES-J007, 2-((2,4-Dimethoxyphenyl)methyl)isoindoline-1,3-dione], in the test on human cyclin D1 IRES, the “Cyclin D1 (decrease): fold decrease in PP242-induced cyclin D1 IRES activity” value is 4.97 ± 0.13 fold. In addition, at hnRNP A1 [1], the “binding of native GST-tagged hnRNP A1 to inhibitor-cross-linked beads” value was “bound”. Besides, the “amount of mutant hnRNP A1 (4ΔA1) bound to inhibitor beads relative to native hnRNP A1” value at hnRNP A1 [2] is listed as “markedly reduced”.
